Results from patent US20060069132A1, “Azolecarboxamide herbicides” (priority 2004, published 2006).

Assays:
large crabgrass [1] = test: Test A pre-/postemergence herbicide test; format: in vivo, Digitaria sanguinalis
Outline: (§1)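 Sandy loam soil given preemergence directed spray; plants at 2 to 10 cm, one- to two-leaf stage, sprayed to runoff postemergence, compounds in non-phytotoxic solvent with surfactant. Injury rated visually versus untreated controls after about ten greenhouse days, 0 (no effect) to 100 (complete control); dash means not tested.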

velvetleaf [2] = test: Test A pre-/postemergence herbicide test; format: in vivo, Abutilon theophrasti
Outline: as §1

wild oat = test: Test B postemergence herbicide test; format: in vivo, Avena fatua; conditions: postemergence
Outline: (§2)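 Read-out: visual comparison with controls, scored 0 to 100, where 100 means complete control and 0 no effect. Formulated chemicals were applied postemergence to plants 2–18 cm tall (1- to 4-leaf), or to flooded-paddy plants at the 2-leaf stage, then held 13 to 15 days under glass.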

rice [3] = test: Test B pre-/postemergence herbicide test; format: in vivo, Oryza sativa; conditions: 0 = no effect, 100 = complete control, preemergence
Outline: (§3)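 Response was scored visually 13 to 15 days after treatment against untreated greenhouse controls, 0 meaning no effect and 100 complete control. Formulations (solvent mixture plus surfactant) went onto soil after planting, onto foliage of 1- to 4-leaf plants, and onto 2-leaf plants in a flooded paddy set including rice and barnyardgrass.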

Surinam grass = test: Test B pre-/postemergence herbicide test; format: in vivo, Urochloa decumbens; conditions: for Surinam Grass plant response rating: postemergence
Outline: as §3

wheat = test: Test B postemergence herbicide test; format: in vivo, Triticum aestivum; set-up: key to Wheat plant response rating: 0 = no effect, 100 = complete control; conditions: postemergence
Outline: as §2

barnyardgrass [4] = test: Test B flooded paddy test; format: in vivo, Echinochloa crus-galli; conditions: 1000 g ai/ha, scale 0 to 100 (0 no effect, 100 complete control)
Outline: (§4)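 Each value is a visual 0–100 response rating taken against controls 13 to 15 days after treatment in the greenhouse. Plants received formulated chemical postemergence at the 1- to 4-leaf stage or, in flooded paddy, at the 2-leaf stage.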

[5] = tested on: small flower umbrella sedge; test: Test B flooded paddy test; format: in vivo, Cyperus difformis; conditions: 1000 g ai/ha, scale 0 to 100 (0 no effect, 100 complete control)
Outline: as §4

large crabgrass [6] = test: Test B pre-/postemergence herbicide test; format: in vivo, Digitaria sanguinalis; conditions: for Crabgrass, Large plant response rating: postemergence
Outline: as §3

giant foxtail [7] = test: Test A pre-/postemergence herbicide test; format: in vivo, Setaria faberi
Outline: as §1

giant foxtail [8] = test: Test B pre-/postemergence herbicide test; format: in vivo, Setaria faberi; conditions: for Foxtail, Giant plant response rating: postemergence
Outline: as §3

morningglory [9] = test: Test B pre-/postemergence herbicide test; format: in vivo, Ipomoea coccinea; conditions: for Morningglory plant response rating: postemergence
Outline: (§5)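 Evaluation is visual, comparing treated with control plants on a scale where 0 means no effect and 100 means full control. Treatments were preemergence, or postemergence on seedlings 2–18 cm tall, and held 13–15 days in the greenhouse.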

barnyardgrass [10] = test: Test B pre-/postemergence herbicide test; format: in vivo, Echinochloa crus-galli; conditions: for Barnyardgrass plant response rating: postemergence
Outline: as §5

barnyardgrass [11] = test: Test A pre-/postemergence herbicide test; format: in vivo, Echinochloa crus-galli
Outline: as §1

ducksalad = test: Test B flooded paddy test; format: in vivo, Heteranthera limosa; conditions: 1000 g ai/ha, scale 0 to 100 (0 no effect, 100 complete control)
Outline: as §4

blackgrass = test: Test B postemergence herbicide test; format: in vivo, Alopecurus myosuroides; conditions: postemergence
Outline: as §4

morningglory [12] = test: Test A pre-/postemergence herbicide test; format: in vivo, Ipomoea spp.
Outline: as §1

pigweed = test: Test B pre-/postemergence herbicide test; format: in vivo, Amaranthus retroflexus; conditions: for Pigweed plant response rating: postemergence
Outline: as §3

velvetleaf [13] = test: Test B pre-/postemergence herbicide test; format: in vivo, Abutilon theophrasti; conditions: for Velvetleaf plant response rating: postemergence
Outline: as §3

lambsquarters = test: Test B pre-/postemergence herbicide test; format: in vivo, Chenopodium album; conditions: for Lambsquarters plant response rating: postemergence
Outline: as §3

corn = test: Test B pre-/postemergence herbicide test; format: in vivo, Zea mays; conditions: for Corn plant response rating: postemergence
Outline: as §3

redroot pigweed = test: Test A pre-/postemergence herbicide test; format: in vivo, Amaranthus retroflexus
Outline: as §1

rice [14] = test: Test B flooded paddy test; format: in vivo, Oryza sativa; conditions: 1000 g ai/ha, scale 0 to 100 (0 no effect, 100 complete control)
Outline: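 Postemergence plants were sprayed with formulated test chemicals at 2 to 18 cm height (1- to 4-leaf stage); paddy species were grown to the 2-leaf stage. After 13 to 15 days in a greenhouse, injury was rated visually against untreated controls on a 0–100 scale (0 = no effect, 100 = complete control).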

cocklebur = test: Test B pre-/postemergence herbicide test; format: in vivo, Xanthium strumarium; conditions: for Cocklebur plant response rating: postemergence
Outline: as §5

[15] = Postemergence, 500 g ai/ha, 0 to 100 scale, 0 no effect, 100 complete control
[16] = Postemergence, 2000 g ai/ha, 0 to 100 scale, 0 no effect, 100 complete control
[17] = Preemergence, 2000 g ai/ha, visual rating, 0 to 100 scale (0 no effect, 100 complete control)
[18] = preemergence, 500 g ai/ha, visual injury, 0 to 100 scale (0 no effect, 100 complete control)
[19] = 125 g ai/ha, visual rating, scale 0 (no effect) to 100 (complete control)
[20] = 500 g ai/ha, scale 0 to 100, 0 is no effect, 100 is complete control
[21] = 125 g ai/ha, 0 = no effect, 100 = complete control, preemergence
[22] = 500 g ai/ha, visual rating, 0 = no effect, 100 = complete control, preemergence

CCn1nc(C(C)(C)C)cc1C(=O)Nc1ccnc(C(=O)N2CC=CC2)c1 [Compound 282]
Crabgrass, Large plant response rating (large crabgrass [1]; [15]): 10
Plant response rating, Crabgrass, Large (large crabgrass [1]; [16]): 25
Crabgrass, Large plant response rating (large crabgrass [1]; [17]): 65
Crabgrass, Large plant response rating (large crabgrass [1]; [18]): 40
Velvetleaf plant response rating (velvetleaf [2]; [15]): 50
Plant response rating, Velvetleaf (velvetleaf [2]; [16]): 50
Velvetleaf plant response rating (velvetleaf [2]; [17]): 45
Velvetleaf plant response rating (velvetleaf [2]; [18]): 20
Oat, Wild plant response rating (wild oat; [19]): 0
Oat, Wild plant response rating (wild oat; [20]): 20
Rice plant response rating (0 to 100 scale) (rice [3]; 125 g ai/ha): 10
Plant response rating, Rice (rice [3]; 500 g ai/ha, visual rating): 40
Surinam Grass plant response rating (0 to 100 scale) (Surinam grass; [21]): 0
Plant response rating, Surinam Grass (Surinam grass; [22]): 20
Surinam Grass plant response rating (Surinam grass; [19]): 10
Surinam Grass plant response rating (Surinam grass; [20]): 10
Wheat plant response rating (wheat; [19]): 30
Wheat plant response rating (wheat; [20]): 30
Barnyardgrass plant response rating (barnyardgrass [4]): 20
Sedge, Umbrella plant response rating [5]: 0
Crabgrass, Large plant response rating (0 to 100 scale) (large crabgrass [6]; [21]): 10
Plant response rating, Crabgrass, Large (large crabgrass [6]; [22]): 80
Crabgrass, Large plant response rating (large crabgrass [6]; [19]): 10
Crabgrass, Large plant response rating (large crabgrass [6]; [20]): 10
Foxtail, Giant plant response rating (giant foxtail [7]; [15]): 20
Plant response rating, Foxtail, Giant (giant foxtail [7]; [16]): 25
Foxtail, Giant plant response rating (giant foxtail [7]; [17]): 40
Foxtail, Giant plant response rating (giant foxtail [7]; [18]): 10
Foxtail, Giant plant response rating (0 to 100 scale) (giant foxtail [8]; [21]): 10
Plant response rating, Foxtail, Giant (giant foxtail [8]; [22]): 20
Foxtail, Giant plant response rating (giant foxtail [8]; [19]): 20
Foxtail, Giant plant response rating (giant foxtail [8]; [20]): 20
Morningglory plant response rating (0 to 100 scale) (morningglory [9]; [21]): 0
Plant response rating, Morningglory (morningglory [9]; [22]): 0
Morningglory plant response rating (morningglory [9]; [19]): 10
Morningglory plant response rating (morningglory [9]; [20]): 20
Barnyardgrass plant response rating (0 to 100 scale) (barnyardgrass [10]; [21]): 30
Plant response rating, Barnyardgrass (barnyardgrass [10]; [22]): 50
Barnyardgrass plant response rating (barnyardgrass [10]; [19]): 0
Barnyardgrass plant response rating (barnyardgrass [10]; [20]): 20
Barnyardgrass plant response rating (barnyardgrass [11]; [15]): 40
Plant response rating, Barnyardgrass (barnyardgrass [11]; [16]): 80
Barnyardgrass plant response rating (barnyardgrass [11]; [17]): 75
Barnyardgrass plant response rating (barnyardgrass [11]; [18]): 30
Ducksalad plant response rating (ducksalad): 80
Blackgrass plant response rating (blackgrass; [19]): 20
Blackgrass plant response rating (blackgrass; [20]): 30
Morningglory plant response rating (morningglory [12]; [15]): 15
Plant response rating, Morningglory (morningglory [12]; [16]): 15
Morningglory plant response rating (morningglory [12]; [17]): 40
Morningglory plant response rating (morningglory [12]; [18]): 10
Pigweed plant response rating (0 to 100 scale) (pigweed; [21]): 100
Plant response rating, Pigweed (pigweed; [22]): 100
Pigweed plant response rating (pigweed; [19]): 20
Pigweed plant response rating (pigweed; [20]): 60
Velvetleaf plant response rating (0 to 100 scale) (velvetleaf [13]; [21]): 10
Plant response rating, Velvetleaf (velvetleaf [13]; [22]): 30
Velvetleaf plant response rating (velvetleaf [13]; [19]): 10
Velvetleaf plant response rating (velvetleaf [13]; [20]): 20
Lambsquarters plant response rating (0 to 100 scale) (lambsquarters; [21]): 100
Plant response rating, Lambsquarters (lambsquarters; [22]): 100
Lambsquarters plant response rating (lambsquarters; [19]): 10
Lambsquarters plant response rating (lambsquarters; [20]): 60
Corn plant response rating (0 to 100 scale) (corn; [21]): 0
Plant response rating, Corn (corn; [22]): 0
Corn plant response rating (corn; [19]): 10
Corn plant response rating (corn; [20]): 20
Pigweed plant response rating (redroot pigweed; [15]): 75
Plant response rating, Pigweed (redroot pigweed; [16]): 100
Pigweed plant response rating (redroot pigweed; [17]): 90
Pigweed plant response rating (redroot pigweed; [18]): 90
Rice plant response rating (rice [14]): 20
Cocklebur plant response rating (0 to 100 scale) (cocklebur; [21]): 0
Plant response rating, Cocklebur (cocklebur; [22]): 0
Cocklebur plant response rating (cocklebur; [19]): 10
Cocklebur plant response rating (cocklebur; [20]): 20
